Laboratory results as given in ChEMBL document CHEMBL4257548, “Phenothiazine antioxidants increase mitochondrial biogenesis and frataxin levels in Friedreich's ataxia cells” (Medchemcomm, 2018).
The source made the active and inactive calls. The rule behind the calls is not given here.

Tests used:
GM15850 [1] = assay: Effect on mitochondrial membrane potential in human GM15850 cells assessed as intact mitochondrial membrane at 0.25 uM after 16 hrs by JC1 staining based flow cytometry (reference value: 87%); format: functional
GM16216 [2] = assay: Increase in frataxin expression in human GM16216 cells at 250 nM after 24 to 48 hrs by ELISA; format: functional, cell-based
GM15850 [3] = assay: Effect on ATP production in human GM15850 cells at 0.1 uM after 24 hrs by Vialight reagent based luminescence assay; format: functional, cell-based
GM16216 [4] = assay: Effect on mitochondrial membrane potential in human GM16216 cells assessed as intact mitochondrial membrane at 0.25 uM after 16 hrs by JC1 staining based flow cytometry (reference value: 87%); format: functional
GM15850 [5] = assay: Cytotoxicity against human GM15850 cells at 2.5 uM after 24 to 48 hrs by live/dead staining-based flow cytometry; format: cell-based; conditions: gm15850, 2.5 µM
GM16216 [6] = assay: Effect on ATP production in human GM16216 cells at 0.1 uM after 24 hrs by Vialight reagent based luminescence assay; format: functional, cell-based
GM15850 [7] = assay: Effect on mitochondrial membrane potential in human GM15850 cells assessed as loss of mitochondrial membrane potential at 0.25 uM after 16 hrs by JC1 staining based flow cytometry (reference value: 13%); format: functional
GM16216 [8] = assay: Increase in frataxin expression in human GM16216 cells at 50 nM after 24 to 48 hrs by ELISA; format: functional, cell-based
GM16216 [9] = assay: Inhibition of ATP production in human GM16216 cells after 24 hrs by Vialight reagent based luminescence assay; format: functional, cell-based
GM16216 [10] = assay: Cytotoxicity against human GM16216 cells at 2.5 uM after 24 to 48 hrs by live/dead staining-based flow cytometry; format: cell-based; conditions: gm16216, 2.5 µM
GM15850 [11] = assay: Inhibition of ATP production in human GM15850 cells after 24 hrs by Vialight reagent based luminescence assay; format: functional, cell-based
GM15850 [12] = assay: Increase in frataxin expression in human GM15850 cells at 50 nM after 24 to 48 hrs by ELISA; format: functional, cell-based
GM16216 [13] = assay: Effect on mitochondrial membrane potential in human GM16216 cells assessed as loss of mitochondrial membrane potential at 0.25 uM after 16 hrs by JC1 staining based flow cytometry (reference value: 13%); format: functional
GM15850 [14] = assay: Increase in frataxin expression in human GM15850 cells at 250 nM after 24 to 48 hrs by ELISA; format: functional, cell-based
GM16216 [15] = assay: Cytoprotection against DEM-induced toxicity in human GM16216 cells assessed as increase in cell viability at 0.5 to 2.5 uM pretreated for 16 hrs followed by DEM addition and measured after 5 hrs by live/dead staining based flow cytometry; format: functional
GM15850 [16] = assay: Cytoprotection against DEM-induced toxicity in human GM15850 cells assessed as increase in cell viability at 0.5 to 2.5 uM pretreated for 16 hrs followed by DEM addition and measured after 5 hrs by live/dead staining based flow cytometry; format: functional
GM16216 [17] = assay: Cytotoxicity against human GM16216 cells at 0.25 to 2.5 uM after 24 to 48 hrs by live/dead staining-based flow cytometry; format: cell-based; conditions: gm16216, 2.5 µM
GM16216 [18] = assay: Increase in ATP production in human GM16216 cells at 0.1 to 0.5 uM after 24 hrs by Vialight reagent based luminescence assay; format: functional, cell-based
GM16216 [19] = assay: Inhibition of ATP production in human GM16216 cells at 2.5 uM after 24 hrs by Vialight reagent based luminescence assay; format: functional, cell-based
GM15850 [20] = assay: Inhibition of ATP production in human GM15850 cells at 2.5 uM after 24 hrs by Vialight reagent based luminescence assay; format: functional, cell-based
GM15850 [21] = assay: Increase in ATP production in human GM15850 cells at 0.1 to 0.5 uM after 24 hrs by Vialight reagent based luminescence assay; format: functional, cell-based
GM15850 [22] = assay: Cytotoxicity against human GM15850 cells at 0.25 to 2.5 uM after 24 to 48 hrs by live/dead staining-based flow cytometry; format: cell-based; conditions: gm15850, 2.5 µM
GM15850 [23] = assay: Induction of mitochondrial biogenesis in human GM15850 cells assessed as increase in ratio of COX1 to SDH-A protein levels at 50 to 250 nM after 24 to 48 hrs by ELISA; format: functional, cell-based
GM16216 [24] = assay: Induction of mitochondrial biogenesis in human GM16216 cells assessed as increase in ratio of COX1 to SDH-A protein levels at 50 to 250 nM after 24 to 48 hrs by ELISA; format: functional, cell-based
GM16216 [25] = assay: Increase in frataxin expression in human GM16216 cells at 50 to 250 nM after 24 to 48 hrs by ELISA; format: functional, cell-based
GM15850 [26] = assay: Increase in frataxin expression in human GM15850 cells at 50 to 250 nM after 24 to 48 hrs by ELISA; format: functional, cell-based

Compound	Activity (GM15850 [1]) [%]	Activity (GM16216 [2])	Activity (GM15850 [3])	Activity (GM16216 [4]) [%]	Activity (GM15850 [5])	Activity (GM16216 [6])	Activity (GM15850 [7]) [%]	Activity (GM16216 [8])	inhibition (GM16216 [9])	Activity (GM16216 [10])	inhibition (GM15850 [11])	Activity (GM15850 [12])	Activity (GM16216 [13]) [%]	Activity (GM15850 [14])	Activity (GM16216 [15])	Activity (GM15850 [16])	also measured
CCCCCCCCCCCc1cc2nc3ccc(N(C)C)cc3sc-2cc1=[N+](C)C.[I-]	82	inactive	inactive	82	Toxic	inactive	18	Active	Dose-dependent effect	Toxic	Dose-dependent effect	Active	18	inactive			
CCCCCc1cc2nc3ccc(N(C)C)cc3sc-2cc1=[N+](C)C.[I-]	81		inactive	81	Toxic	inactive	19		Dose-dependent effect	Toxic	Dose-dependent effect		19		Active	Active	
CCCCCCCCCCCCCCCCc1cc2nc3ccc(N(C)C)cc3sc-2cc1=[N+](C)C.[I-]	86	inactive		86			14	Active				Active	14	inactive	Active	Active	Activity (GM16216 [17]): Non-Toxic; Activity (GM16216 [18]): Active; inhibition (GM16216 [19]): Active; inhibition (GM15850 [20]): Active; Activity (GM15850 [21]): Active; Activity (GM15850 [22]): Non-Toxic
CN(C)c1ccc2nc3ccc(=[N+](C)C)cc-3sc2c1			inactive			inactive			Dose-dependent effect		Dose-dependent effect				Active	Active	Activity (GM15850 [23]): Active; Activity (GM16216 [24]): Active; Activity (GM16216 [25]): Active; Activity (GM15850 [26]): Active
CN(C)c1ccc2nc3ccc(N(C)C)cc3[s+]c2c1.[Cl-] [METHYLENE BLUE ANHYDROUS]	83			83			17						17				
